Test results: the OligoGym collection
After the bases stand the sugars from the 5' end (letter, count) and the backbone: PS all phosphorothioate, else s phosphorothioate and o phosphodiester by linkage. Methylation of C is not given here. e = 2'-O-(2-methoxyethyl) (MOE); k = constrained ethyl (cEt); d = 2'-deoxy (DNA); m = 2'-O-methyl

Biological target: HSD17B13
Details: ASO, HepaRG

Sequence | target mRNA inhibition (1 µM) [%] | other results
ACGACTTCATCTGTCT (sugars k3 d10 k3, PS) | 8 | –
TCCTAGGATGTTGACC (sugars k3 d10 k3, PS) | 0 | –
GAGGAATGGCTAGGAT (sugars k3 d10 k3, PS) | 47 | –
TAGGCTAAAATGGTCA (sugars k3 d10 k3, PS) | 59 | –
GTAAAGTTTGTTAGAG (sugars k3 d10 k3, PS) | 54 | –
ATCCAAAGATGAGAGT (sugars k3 d10 k3, PS) | 5 | –
CGTAGCAAATGTAAGA (sugars k3 d10 k3, PS) | 0 | –
ATGGATCTAGAACACT (sugars k3 d10 k3, PS) | 43 | –
ATATGTCCAGGTTGAG (sugars k3 d9 k3 e1, PS) | 71 | –
TGGTAGCTTGCTCACT (sugars k3 d10 k3, PS) | 71 | target mRNA inhibition (0.02 µM): 16%; target mRNA inhibition (0.078 µM): 31%; target mRNA inhibition (0.313 µM): 48%; target mRNA inhibition (1.25 µM): 72%; target mRNA inhibition (5 µM): 81%
AATAACTGTTCTCCCC (sugars k3 d10 k3, PS) | 20 | –
AGAGTTGCACCGTTTT (sugars k3 d10 k3, PS) | 76 | target mRNA inhibition (0.02 µM): 5%; target mRNA inhibition (0.078 µM): 11%; target mRNA inhibition (0.313 µM): 40%; target mRNA inhibition (1.25 µM): 81%; target mRNA inhibition (5 µM): 87%
GATTAAGCAGAATTGT (sugars k3 d1 m1 d8 k3, PS) | 28 | –
GATAAAATAGGGTGCA (sugars k3 d10 k3, PS) | 52 | –
TGAACATACATTGTTG (sugars k3 d10 k3, PS) | 29 | –
AGACTTCTTACGACTT (sugars k3 d10 k3, PS) | 41 | –
TAAGAGATGAGTAGGC (sugars k3 d10 k3, PS) | 46 | –
TCTTATCCACACCTTC (sugars k3 d10 k3, PS) | 31 | –
CCAGGTTGAGATAAAG (sugars k3 d10 k3, PS) | 49 | –
CTTAGCTGTGCACTCA (sugars k3 d10 k3, PS) | 60 | –
AATAGCCAGTACAGTT (sugars k3 d9 k3 e1, PS) | 61 | –
TATGAAGTTAGTATAG (sugars k3 d1 m1 d8 k3, PS) | 27 | –
AGGATTAATCATGGGA (sugars k3 d10 k3, PS) | 37 | –
AGAAGATATTATCAGC (sugars k3 d10 k3, PS) | 64 | –

Sequence | target mRNA inhibition (1 µM) [%] | other results
GACCAGGGAATTTATC (sugars k3 d10 k3, PS) | 41 | –
GACAATGACATAGACG (sugars k3 d10 k3, PS) | 0 | –
GCCAAACTGCTACTGT (sugars k3 d10 k3, PS) | 73 | target mRNA inhibition (0.02 µM): 1%; target mRNA inhibition (0.078 µM): 13%; target mRNA inhibition (0.313 µM): 41%; target mRNA inhibition (1.25 µM): 63%; target mRNA inhibition (5 µM): 76%
TTGCACCGTTTTGGGC (sugars k3 d9 k3 e1, PS) | 50 | –
AGTAAATTGAATAGCC (sugars k3 d10 k3, PS) | 39 | –
AGTACAGTTCCTTTTC (sugars k3 d9 k3 e1, PS) | 59 | –
AAGCTTATCGAGTTTA (sugars k3 d10 k3, PS) | 26 | –
ACAGUAAAATTATGCC (sugars k3 d1 m1 d8 k3, PS) | 24 | –
TTAGAGTGCTTAGTTC (sugars k3 d10 k3, PS) | 58 | –
TATTCTCCAACTCAGG (sugars k3 d10 k3, PS) | 54 | –
GTGTTCTTGTTGATAT (sugars kkdddddddddkekek, PS) | 63 | –
TTGATTCGAAACTATT (sugars k3 d10 k3, PS) | 55 | –
ATTAAGCATTGTTAGC (sugars k3 d10 k3, PS) | 0 | –
CTCTATAATAAGGTAA (sugars k3 d10 k3, PS) | 0 | –
TCTAAGTTAGCCCCCA (sugars k3 d9 k3 e1, PS) | 0 | –
GTATAGTTATCTTCTC (sugars kkdddddddddkekek, PS) | 49 | –
TAAGTAGATGGTAAGT (sugars k3 d10 k3, PS) | 74 | target mRNA inhibition (0.02 µM): 5%; target mRNA inhibition (0.078 µM): 10%; target mRNA inhibition (0.313 µM): 34%; target mRNA inhibition (1.25 µM): 72%; target mRNA inhibition (5 µM): 85%
TCCAATATATACTGAC (sugars k3 d10 k3, PS) | 72 | –
AGTAGTAATTCTAAAC (sugars k3 d10 k3, PS) | 23 | –
TTGATCTCTTAGCTGT (sugars k3 d9 k3 e1, PS) | 64 | –
ATGTGAAGAGCTGGTA (sugars kkkddkddddddkkke, PS) | 56 | –
CTCTCTAAAGGGCTGC (sugars k3 d10 k3, PS) | 55 | –
ATGTAATAGCCAGTAC (sugars kkdddddddddkekek, PS) | 47 | –
CCAGAGCATTCATCAG (sugars k3 d10 k3, PS) | 83 | target mRNA inhibition (0.02 µM): 0%; target mRNA inhibition (0.078 µM): 13%; target mRNA inhibition (0.313 µM): 41%; target mRNA inhibition (1.25 µM): 71%; target mRNA inhibition (5 µM): 79%

Sequence | target mRNA inhibition (1 µM) [%] | other results
CAGGTAATTAATCTTG (sugars k3 d10 k3, PS) | 54 | –
CTATAGTAATTGCTAT (sugars k3 d10 k3, PS) | 0 | –
GCACCGTTTTGGGCTA (sugars k3 d10 k3, PS) | 74 | target mRNA inhibition (0.02 µM): 36%; target mRNA inhibition (0.078 µM): 38%; target mRNA inhibition (0.313 µM): 61%; target mRNA inhibition (1.25 µM): 80%; target mRNA inhibition (5 µM): 88%
AATATGGGATGAGGTA (sugars k3 d10 k3, PS) | 53 | –
TGCAATAGTACTATAG (sugars k3 d10 k3, PS) | 24 | –
TTTGAGCCTAAAATTG (sugars k3 d10 k3, PS) | 26 | –
GACAATACAGGATAGA (sugars k3 d10 k3, PS) | 43 | –
GGGATAAACTGTTCTT (sugars k3 d10 k3, PS) | 47 | –
CAGAACCAATATGCTC (sugars k3 d10 k3, PS) | 56 | –
ATATTCTGTGGCATGG (sugars kkdddddddddkekek, PS) | 43 | –
ACGGUGATCAAATGTA (sugars k3 d1 m1 d8 k3, PS) | 18 | –
TTGAUATTCTGTGGCA (sugars k3 d1 m1 d8 k3, PS) | 60 | –
AAATTAGAGGCCCAGG (sugars k3 d10 k3, PS) | 43 | –
TCTTATAAGACTATAA (sugars k3 d10 k3, PS) | 17 | –
GGCTTTATCATTCTAA (sugars k3 d10 k3, PS) | 20 | –
TTGCAGTTATTAGAAG (sugars k3 d9 k3 e1, PS) | 10 | –
AACCAATTATATGAGG (sugars k3 d10 k3, PS) | 38 | –
CCGTUTTGGGCTAATG (sugars k3 d1 m1 d8 k3, PS) | 51 | –
GACCTCTGTGAAAGCC (sugars k3 d10 k3, PS) | 46 | –
TAGTATAGTTATCTTC (sugars k3 d10 k3, PS) | 28 | –
GTGTAAGCTGAGAGTT (sugars k3 d10 k3, PS) | 60 | –
AAAATAGAGTCGGTCA (sugars k3 d9 k3 e1, PS) | 65 | –
AAATATGTCCAGGTTG (sugars k3 d9 k3 e1, PS) | 74 | target mRNA inhibition (0.02 µM): 3%; target mRNA inhibition (0.078 µM): 0%; target mRNA inhibition (0.313 µM): 16%; target mRNA inhibition (1.25 µM): 60%; target mRNA inhibition (5 µM): 88%
CCTCTAAGTTAGCCCC (sugars kkdddddddddkekek, PS) | 20 | –

Sequence | target mRNA inhibition (1 µM) [%] | other results
GCCTTGAATAGCAAGC (sugars k3 d9 k3 e1, PS) | 38 | –
TAAGGTAAACTAAAGT (sugars k3 d10 k3, PS) | 9 | –
TTGCAAGTTTATCAGT (sugars k3 d10 k3, PS) | 66 | –
CTGGTTTCATAACCTA (sugars k3 d10 k3, PS) | 9 | –
CTCTAGGAGATATAAC (sugars k3 d10 k3, PS) | 49 | –
CCTCAAATGTCTTGGT (sugars k3 d10 k3, PS) | 6 | –
AACAAGATTAGTCTTG (sugars k3 d10 k3, PS) | 40 | –
TGCTGCATTAATGCCA (sugars kkdddddddddkekek, PS) | 30 | –
TTGCAATAGTACTATA (sugars k3 d10 k3, PS) | 3 | –
CCTCATTTAGCAGCTT (sugars k3 d10 k3, PS) | 81 | target mRNA inhibition (0.02 µM): 14%; target mRNA inhibition (0.078 µM): 34%; target mRNA inhibition (0.313 µM): 54%; target mRNA inhibition (1.25 µM): 78%; target mRNA inhibition (5 µM): 88%
GGTCACCTTTCATAAT (sugars k3 d10 k3, PS) | 57 | –
AATTGATACACCAATG (sugars k3 d1 m1 d8 k3, PS) | 40 | –
GGGCTAGAACTTAAAA (sugars k3 d10 k3, PS) | 35 | –
TACCAAACTTGCCCAT (sugars k3 d10 k3, PS) | 33 | –
TCAAAAAGGCCCAAGG (sugars k3 d10 k3, PS) | 46 | –
TGTATTAAGACAGTTG (sugars k3 d10 k3, PS) | 34 | –
TCTAGGAGATATAACA (sugars k3 d10 k3, PS) | 48 | –
ATGTAATAGGCAGTAA (sugars k3 d10 k3, PS) | 33 | –
TTAATACGACTTCCTT (sugars k3 d10 k3, PS) | 35 | –
ATAGCAAGCCAACAGA (sugars k3 d9 k3 e1, PS) | 30 | –
TGCCTGCCTATTCCAT (sugars k3 d10 k3, PS) | 40 | –
TAAGAGGCATGAAAGG (sugars k3 d10 k3, PS) | 52 | –
CTTGCAGAAATTCACC (sugars k3 d10 k3, PS) | 40 | –
CTCTATTGGTGTTTTA (sugars k3 d10 k3, PS) | 32 | –
